Assay [1] has as its target T1, pre-fibrillized Amylin/IAPP fibrils (Homo sapiens, UniProt P10997).
T1 construct: purchased Bachem Inc
T1 sequence (P10997 34-70 limits assumed): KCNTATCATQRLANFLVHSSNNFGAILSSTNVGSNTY
Kind of assay: Thioflavin T fluorometry, disruption/disassembly of pre-formed Amylin/IAPP fibrils. The class given is biochemical. To be noted: for % Inhibition Amylin/IAPP (result ± S.D.), Thioflavin T fluorometry: 3-day incubation at 37° C.; for disruption/disassembly of preformed Amylin/IAPP fibrils (result in words), Thioflavin T fluorometry: all concentrations tested (wt/wt ratios 1:1 to 1:0.001). The procedure: The biological activity of the compounds provided herein as disruptors/inhibitors of IAPP amyloid protein fibrils, was assessed by determining the efficacy of the compounds to cause a disassembly/disruption of pre-formed IAPP amyloid fibrils. […] In this assay Thioflavin T binds specifically to fibrillar amyloid, and this binding produces a fluorescence enhancement at 485 nm that is directly proportional to the amount of fibrils present. The higher the fluorescence, the greater the amount of fibrils present (Naki et al, Lab. Invest. 65:104-110, 1991; Levine III, Protein Sci. 2:404-410, 1993; Amyloid: Int. J. Exp. Clin. Invest. 2:1-6, 1995).
In this assay Thioflavin T binds specifically to fibrillar amyloid, and this binding produces a fluorescence enhancement at 485 nm that is directly proportional to the amount of amyloid fibrils formed. The higher the fluorescence, the greater the amount of amyloid fibrils formed (Naki et al., Lab. Invest. 65:104-110, 1991; Levine III, Protein Sci. 2:404-410, 1993; Amyloid: Int. J. Exp. Clin. Invest. 2:1-6, 1995). The same premise is applied to Amylin/IAPP fibrils.
Following 3-days of co-incubation, 50 μl of each incubation mixture was transferred into a 96-well microtiter plate containing 150 μl of distilled water and 50 μl of a Thioflavin T solution (i.e. 500 mM Thioflavin T in 250 mM phosphate buffer, pH 6.8). The fluorescence was read at 485 nm (444 nm excitation wavelength) using an ELISA plate fluorometer after subtraction with buffer alone or compound alone, as blank.

Assay [2] concerns the target T2, Amylin/IAPP fibrils (Homo sapiens, UniProt P10997).
T2 sequence (P10997 34-70 limits assumed): T1 sequence (P10997 34-70 limits assumed)
Kind of assay: Congo red binding assay, Amylin/IAPP fibrils. The class given is biochemical. The note with it: 3-day incubation. The method, then:
In the Congo red binding assay the ability of a given test compound to alter amyloid binding to Congo red was quantified. In this assay, IAPP fibrils and test compounds were incubated for 3 days and then vacuum filtered through a 0.2 μm filter. The amount of IAPP fibrils retained in the filter was then quantitated following staining of the filter with Congo red. After appropriate washing of the filter, any lowering of the Congo red color on the filter in the presence of the test compound (compared to the Congo red staining of the amyloid protein in the absence of the test compound) was indicative of the test compound's ability to diminish/alter the amount of aggregated and congophilic IAPP fibrils.
In the Congo red binding assay the ability of a test compound to alter Amylin/IAPP binding to Congo red is quantified. In this assay, Amylin/IAPP and test compounds were incubated for 3 days and then vacuum filtered through a 0.2 μm filter. The amount of Amylin/IAPP retained in the filter was then quantitated following staining of the filter with Congo red. After appropriate washing of the filter, any lowering of the Congo red color retained on the filter in the presence of the test compound (compared to the Congo red staining of the Amylin/IAPP protein in the absence of the test compound) was indicative of the test compound's ability to diminish/alter the amount of aggregated and/or congophilic Amylin/IAPP.

Setting [3] is: Amylin/IAPP:test compound wt/wt ratio 1:0.001.
Where [4] appears, read: Amylin/IAPP:test compound wt/wt ratio 1:0.01.
The mark [5] stands for this setting: Amylin/IAPP:test compound wt/wt ratio 1:0.1.
[6] abbreviates: Amylin/IAPP:test compound wt/wt ratio 1:1.

Turning to `O=C(Nc1ccc(O)c(O)c1)c1cccc(O)c1O` [Compound 1, 2,3 dihydroxybenzoic Acid 3,4 Dihydroxyanilide], the “% Inhibition Amylin/IAPP (result ± S.D.), Thioflavin T fluorometry” value in assay [1] (setting [3]) is given as 14.3 ± 3.56%; in assay [1] (setting [4]), 60.9±0.61%; in assay [1] (setting [5]), 95.1±0.48%; in assay [1] (setting [6]), 98.5 ± 0.26%. Moreover, in assay [1], the “disruption/disassembly of preformed Amylin/IAPP fibrils (result in words), Thioflavin T fluorometry” value (“disruption/disassembly” below) is on record as “most efficacious”. Further, the “% Inhibition Amylin/IAPP (result ± S.D.), Congo red binding” value came out at 0.0 ± 6.44% in assay [2] (setting [3]), 7.8 ± 6.13% in assay [2] (setting [4]), 35.7 ± 5.12% in assay [2] (setting [5]) and 58.1 ± 6.67% in assay [2] (setting [6]).

In the case of `O=C(Nc1cccc(O)c1O)c1ccc(O)c(O)c1` [Compound 2, 3,4 dihydroxybenzoic Acid 2,3 Dihydroxyanilide], the “% Inhibition Amylin/IAPP (result ± S.D.), Thioflavin T fluorometry” value in assay [1] (setting [3]) is reported as 5.1 ± 4.57%; in assay [1] (setting [4]), 52.9 ± 4.36%; in assay [1] (setting [5]), 92.6 ± 0.84%; in assay [1] (setting [6]), 99.4 ± 1.69%. Further, the “% Inhibition Amylin/IAPP (result ± S.D.), Congo red binding” value was 5.3 ± 6.75% in assay [2] (setting [3]), 5.2 ± 0.23% in assay [2] (setting [4]), 33.5 ± 6.38% in assay [2] (setting [5]) and 45.8 ± 1.62% in assay [2] (setting [6]).

`O=C(Nc1cccc(O)c1O)c1cccc(O)c1O` [Compound 3, 2,3 dihydroxybenzoic Acid 2,3 Dihydroxyanilide]: the “% Inhibition Amylin/IAPP (result ± S.D.), Thioflavin T fluorometry” value in assay [1] (setting [3]) is on record as 5.0 ± 6.78%; in assay [1] (setting [4]) it was 51.7±3.56%; in assay [1] (setting [5]) it was 94.5±0.91%; in assay [1] (setting [6]) it was 99.3 ± 0.6%. Moreover, the “disruption/disassembly” value in assay [1] is “most efficacious”. The “% Inhibition Amylin/IAPP (result ± S.D.), Congo red binding” value in assay [2] (setting [3]) is 7.1 ± 4.14%; in assay [2] (setting [4]), 3.6 ± 1.16%; in assay [2] (setting [5]) it was 26.0 ± 5.79%; in assay [2] (setting [6]) it was 60.1 ± 3.78%.

For `CN(C(=O)c1ccc(O)c(O)c1)c1ccc(O)c(O)c1` [Compound 4, 3,4 Dihydroxybenzoic Acid 3,4 Dihydroxy N-methyl Anilide], the “% Inhibition Amylin/IAPP (result ± S.D.), Thioflavin T fluorometry” value in assay [1] (setting [3]) was 9.8 ± 7.47%; in assay [1] (setting [4]), 57.4±1.61%; in assay [1] (setting [5]), 95.4±0.23%; in assay [1] (setting [6]) it was 100.0 ± 0.09%. Also, the “disruption/disassembly” value in assay [1] is listed as “most efficacious”. Further, the “% Inhibition Amylin/IAPP (result ± S.D.), Congo red binding” value in assay [2] (setting [3]) came out at 0.0 ± 7.35%; in assay [2] (setting [4]) it was 8.0 ± 4.62%; in assay [2] (setting [5]), 46.0±7.43%; in assay [2] (setting [6]) it was 70.8±1.55%.

For `O=S(=O)(Nc1ccc(O)c(O)c1)c1ccc(O)c(O)c1` [Compound 5, 3,4 Dihydroxybenzenesulfonic acid 3,4 Dihydroxysulfonamide], the “% Inhibition Amylin/IAPP (result ± S.D.), Thioflavin T fluorometry” value in assay [1] (setting [3]) came to 14.1 ± 1.62%; in assay [1] (setting [4]), 56.7±0.4%; in assay [1] (setting [5]) it was 93.7±1.13%; in assay [1] (setting [6]), 99.7 ± 0.38%. The “disruption/disassembly” value in assay [1] is “most efficacious”. Also, the “% Inhibition Amylin/IAPP (result ± S.D.), Congo red binding” value turned out to be 3.5 ± 2.40% in assay [2] (setting [3]), 8.3 ± 6.91% in assay [2] (setting [4]), 43.4 ± 3.39% in assay [2] (setting [5]) and 54.6 ± 14.22% in assay [2] (setting [6]).

`Oc1ccc(-c2cnc(-c3ccc(O)c(O)c3)[nH]2)cc1O` [Compound 6, 2,4 bis(3,4 dihydroxyphenyl) Imidazole]: the “% Inhibition Amylin/IAPP (result ± S.D.), Thioflavin T fluorometry” value in assay [1] (setting [3]) is given as 17.2 ± 4.22%; in assay [1] (setting [4]), 68.9±3.33%; in assay [1] (setting [5]), 96.3±0.76%; in assay [1] (setting [6]), 100.0 ± 0.26%. The “disruption/disassembly” value in assay [1] is listed as “most efficacious”. The “% Inhibition Amylin/IAPP (result ± S.D.), Congo red binding” value in assay [2] (setting [3]) is recorded as 5.2 ± 2.31%; in assay [2] (setting [4]), 1.0 ± 4.82%; in assay [2] (setting [5]) it was 36.4 ± 12.77%; in assay [2] (setting [6]), 80.7 ± 0.75%.

As to `Oc1ccc(-c2nnc(-c3ccc(O)c(O)c3)[nH]2)cc1O` [Compound 7, 3,5 bis(3,4 Dihydroxyphenyl) 1,2,4 Triazole], the “% Inhibition Amylin/IAPP (result ± S.D.), Thioflavin T fluorometry” value in assay [1] (setting [3]) came out at 4.6 ± 4.34%; in assay [1] (setting [4]), 41.4 ± 2.13%; in assay [1] (setting [5]), 89.7 ± 0.54%; in assay [1] (setting [6]), 99.8 ± 0.31%. Moreover, the “% Inhibition Amylin/IAPP (result ± S.D.), Congo red binding” value in assay [2] (setting [3]) worked out at 9.1 ± 1.29%; in assay [2] (setting [5]) it was 44.1 ± 5.62%; in assay [2] (setting [6]), 66.2±7.81%.

Regarding `Oc1ccc(-c2cc(-c3ccc(O)c(O)c3)[nH]n2)cc1O` [Compound 8, 3,5 bis(3,4 Dihydroxyphenyl)Pyrazole], the “% Inhibition Amylin/IAPP (result ± S.D.), Thioflavin T fluorometry” value amounted to 8.1 ± 1.54% in assay [1] (setting [3]), 48.4 ± 0.31% in assay [1] (setting [4]), 91.2 ± 0.76% in assay [1] (setting [5]) and 99.0 ± 1.05% in assay [1] (setting [6]). In addition, the “% Inhibition Amylin/IAPP (result ± S.D.), Congo red binding” value is reported as 1.7 ± 1.98% in assay [2] (setting [3]), 20.2 ± 7.11% in assay [2] (setting [4]), 39.7 ± 7.20% in assay [2] (setting [5]) and 74.9 ± 1.26% in assay [2] (setting [6]).

For `Oc1ccc(C23CC4CC(C2)CC(c2ccc(O)c(O)c2)(C4)C3)cc1O` [Compound 9, 1,3 bis(3,4 dihydroxyphenyl) Adamantane], the “% Inhibition Amylin/IAPP (result ± S.D.), Thioflavin T fluorometry” value came to 4.3 ± 2.29% in assay [1] (setting [3]), 36.6 ± 3.55% in assay [1] (setting [4]), 88.5 ± 0.31% in assay [1] (setting [5]) and 97.6 ± 0.31% in assay [1] (setting [6]). Also, the “% Inhibition Amylin/IAPP (result ± S.D.), Congo red binding” value in assay [2] (setting [3]) is reported as 16.5 ± 9.88%; in assay [2] (setting [4]), 12.0 ± 8.03%; in assay [2] (setting [5]) it was 41.2 ± 5.64%; in assay [2] (setting [6]), 88.6 ± 2.08%.
